Data published in patent publication US20050250801A1, “Method of treating cancer with azaspirane compositions” (priority 2003, published 2005).
Like-named read-outs stand apart in the source and are kept apart here.

Tests used:
Assay in all cases: NCI in vitro SRB assay, Melanoma
Assay type in all cases: cell-based
[1] = system: M14; details: for CC50 / GI50: Homo sapiens
Method: (§1) An in vitro assay which tested the ability of N,N,-diethyl-8,8-dipropyl-2-azaspiro[4,5]decane-2-propanamine dimaleate (Compound 1) to inhibit the growth of known cancer cell lines was performed by the National Cancer Institute in accordance with standard procedures. See: Lin, Z. X., Hoult, J. R., and Raman, A. Sulphorhodamine B assay for measuring proliferation of a pigmented melanocyte cell line and its application to the evaluation of crude drugs used in the treatment of vitiligo. J Ethnopharmacol. 66: 141-150, 1999. Briefly, selected tumor cell lines were cultured in media containing five different concentrations of Compound 1. After 48 hours of continuous exposure, a sulforhodamine B (SRB) assay was used to estimate cell viability or growth via optical measurements.
(§2) From the measurements, the following values were determined: 1) the concentration of Compound 1 at which a tumor cell growth inhibition of 50% (relative to control) occurs (GI50), 2) the concentration of Compound 1 at which no growth occurs (total growth inhibition, TGI), and 3) the concentration of Compound 1 at which the […] (LC 50). […] FIG. 6 illustrates, graphically, tumor cell growth as a function of Compound 1 concentration of the scanned tumor cell lines.

[2] = system: SK-MEL-2; details: for CC50 / GI50: Homo sapiens
Method: as §1, §2

[3] = system: UACC-62; details: for CC50 / GI50: Homo sapiens
Method: as §1, §2

[4] = system: SK-MEL-28; details: for CC50 / GI50: Homo sapiens
Method: as §1, §2

[5] = system: SK-MEL-5; details: for CC50 / GI50: Homo sapiens
Method: as §1, §2

[6] = system: UACC-257; details: for CC50 / GI50: Homo sapiens
Method: as §1, §2

[7] = system: LOX IMVI; details: for GI50 / CC50: Homo sapiens
Method: as §1, §2

[8] = system: MALME-3M; details: for CC50 / GI50: Homo sapiens, Malme-3M
Method: as §1, §2

[9] = SK-MEL-2, Log10 conc -4.0 Moles/L
[10] = SK-MEL-2, Log10 conc -5.0 Moles/L
[11] = SK-MEL-2, Log10 conc -6.0 Moles/L
[12] = SK-MEL-2, Log10 conc -7.0 Moles/L
[13] = SK-MEL-2, Log10 conc -8.0 Moles/L
[14] = UACC-62, Log10 conc -4.0 Moles/L
[15] = UACC-62, Log10 conc -5.0 Moles/L
[16] = UACC-62, Log10 conc -6.0 Moles/L
[17] = UACC-62, Log10 conc -7.0 Moles/L
[18] = UACC-62, Log10 conc -8.0 Moles/L
[19] = SK-MEL-28, Log10 conc -4.0 Moles/L
[20] = SK-MEL-28, Log10 conc -5.0 Moles/L
[21] = SK-MEL-28, Log10 conc -6.0 Moles/L
[22] = SK-MEL-28, Log10 conc -7.0 Moles/L
[23] = SK-MEL-28, Log10 conc -8.0 Moles/L
[24] = SK-MEL-5, Log10 conc -4.0 Moles/L
[25] = SK-MEL-5, Log10 conc -5.0 Moles/L
[26] = SK-MEL-5, Log10 conc -6.0 Moles/L
[27] = SK-MEL-5, Log10 conc -7.0 Moles/L
[28] = SK-MEL-5, Log10 conc -8.0 Moles/L
[29] = UACC-257, Log10 conc -4.0 Moles/L
[30] = UACC-257, Log10 conc -5.0 Moles/L
[31] = UACC-257, Log10 conc -6.0 Moles/L
[32] = UACC-257, Log10 conc -7.0 Moles/L
[33] = UACC-257, Log10 conc -8.0 Moles/L
[34] = read-out: Log10 GI50 (converted)
[35] = read-out: Log10 LC50 (converted)
[36] = MALME-3M, Log10 conc -4.0 Moles/L
[37] = MALME-3M, Log10 conc -5.0 Moles/L
[38] = MALME-3M, Log10 conc -6.0 Moles/L
[39] = MALME-3M, Log10 conc -7.0 Moles/L
[40] = MALME-3M, Log10 conc -8.0 Moles/L

CCCC1(CCC)CCC2(CCN(CCCN(CC)CC)C2)CC1.O=C(O)/C=C\C(=O)O.O=C(O)/C=C\C(=O)O [Compound 1, N,N,-diethyl-8,8-dipropyl-2-azaspiro[4,5]decane-2-propanamine dimaleate]
CC50 ([1]; M14, read-out: LC50): 1800 nM
CC50 ([1]; M14, read-out: Log10 LC50 (converted)): 1820 nM
GI50 ([1]; M14, read-out: GI50): 203 nM
GI50 ([1]; M14, read-out: Log10 GI50 (converted)): 204 nM
Log10 TGI ([1]; M14): −6.32
TGI ([1]; M14): 477 nM
Mean Optical Densities ([1]; M14, Log10 conc -4.0 Moles/L): 0.109
Percent Growth ([1]; M14, Log10 conc -4.0 Moles/L): −61%
Mean Optical Densities ([1]; M14, Log10 conc -5.0 Moles/L): 0.086
Percent Growth ([1]; M14, Log10 conc -5.0 Moles/L): −69%
Mean Optical Densities ([1]; M14, Log10 conc -6.0 Moles/L): 0.158
Percent Growth ([1]; M14, Log10 conc -6.0 Moles/L): −43%
Mean Optical Densities ([1]; M14, Log10 conc -7.0 Moles/L): 0.838
Percent Growth ([1]; M14, Log10 conc -7.0 Moles/L): 92%
Mean Optical Densities ([1]; M14, Log10 conc -8.0 Moles/L): 0.884
Percent Growth ([1]; M14, Log10 conc -8.0 Moles/L): 99%
CC50 ([2]; SK-MEL-2, read-out: LC50): > 100000 nM
CC50 ([2]; SK-MEL-2, read-out: Log10 LC50 (converted)): > 100000 nM
GI50 ([2]; SK-MEL-2, read-out: GI50): 3450 nM
GI50 ([2]; SK-MEL-2, read-out: Log10 GI50 (converted)): 3470 nM
Log10 TGI ([2]; SK-MEL-2): >−4.00
TGI ([2]; SK-MEL-2): >100000 nM
Mean Optical Densities [2, 9]: 0.168
Percent Growth [2, 9]: 7%
Mean Optical Densities [2, 10]: 0.167
Percent Growth [2, 10]: 7%
Mean Optical Densities [2, 11]: 1.199
Percent Growth [2, 11]: 100%
Mean Optical Densities [2, 12]: 1.191
Percent Growth [2, 12]: 99%
Mean Optical Densities [2, 13]: 1.191
Percent Growth [2, 13]: 99%
CC50 ([3]; UACC-62, read-out: LC50): 2530 nM
CC50 ([3]; UACC-62, read-out: Log10 LC50 (converted)): 2510 nM
GI50 ([3]; UACC-62, read-out: GI50): 218 nM
GI50 ([3]; UACC-62, read-out: Log10 GI50 (converted)): 219 nM
Log10 TGI ([3]; UACC-62): −6.19
TGI ([3]; UACC-62): 642 nM
Mean Optical Densities [3, 14]: 0.060
Percent Growth [3, 14]: −89%
Mean Optical Densities [3, 15]: 0.034
Percent Growth [3, 15]: −94%
Mean Optical Densities [3, 16]: 0.421
Percent Growth [3, 16]: −21%
Mean Optical Densities [3, 17]: 1.379
Percent Growth [3, 17]: 86%
Mean Optical Densities [3, 18]: 1.375
Percent Growth [3, 18]: 85%
CC50 ([4]; SK-MEL-28, read-out: LC50): 4860 nM
CC50 ([4]; SK-MEL-28, read-out: Log10 LC50 (converted)): 4900 nM
GI50 ([4]; SK-MEL-28, read-out: GI50): 561 nM
GI50 ([4]; SK-MEL-28, read-out: Log10 GI50 (converted)): 562 nM
Log10 TGI ([4]; SK-MEL-28): −5.72
TGI ([4]; SK-MEL-28): 1890 nM
Mean Optical Densities [4, 19]: 0.026
Percent Growth [4, 19]: −95%
Mean Optical Densities [4, 20]: 0.061
Percent Growth [4, 20]: −88%
Mean Optical Densities [4, 21]: 0.846
Percent Growth [4, 21]: 34%
Mean Optical Densities [4, 22]: 1.473
Percent Growth [4, 22]: 98%
Mean Optical Densities [4, 23]: 1.301
Percent Growth [4, 23]: 80%
CC50 ([5]; SK-MEL-5, read-out: LC50): 5250 nM
CC50 ([5]; SK-MEL-5, read-out: Log10 LC50 (converted)): 5250 nM
GI50 ([5]; SK-MEL-5, read-out: GI50): 1280 nM
GI50 ([5]; SK-MEL-5, read-out: Log10 GI50 (converted)): 1290 nM
Log10 TGI ([5]; SK-MEL-5): −5.59
TGI ([5]; SK-MEL-5): 2590 nM
Mean Optical Densities [5, 24]: −0.001
Percent Growth [5, 24]: −100%
Mean Optical Densities [5, 25]: 0.021
Percent Growth [5, 25]: −96%
Mean Optical Densities [5, 26]: 1.420
Percent Growth [5, 26]: 68%
Mean Optical Densities [5, 27]: 1.797
Percent Growth [5, 27]: 95%
Mean Optical Densities [5, 28]: 1.779
Percent Growth [5, 28]: 93%
CC50 ([6]; UACC-257, read-out: LC50): 8740 nM
CC50 ([6]; UACC-257, read-out: Log10 LC50 (converted)): 8710 nM
GI50 ([6]; UACC-257, read-out: GI50): 1740 nM
GI50 ([6]; UACC-257, read-out: Log10 GI50 (converted)): 1740 nM
Log10 TGI ([6]; UACC-257): −5.41
TGI ([6]; UACC-257): 3900 nM
Mean Optical Densities [6, 29]: 0.113
Percent Growth [6, 29]: −75%
Mean Optical Densities [6, 30]: 0.190
Percent Growth [6, 30]: −58%
Mean Optical Densities [6, 31]: 1.302
Percent Growth [6, 31]: 84%
Mean Optical Densities [6, 32]: 1.427
Percent Growth [6, 32]: 97%
Mean Optical Densities [6, 33]: 1.403
Percent Growth [6, 33]: 94%
Log10 TGI [7]: −5.74
TGI [7]: 1840 nM
GI50 ([7]; read-out: GI50): 515 nM
CC50 ([7]; read-out: LC50): 4290 nM
GI50 [7, 34]: 513 nM
CC50 [7, 35]: 4270 nM
Mean Optical Densities ([7]; Log10 conc -4.0 Moles/L): −0.030
Percent Growth ([7]; Log10 conc -4.0 Moles/L): −100%
Mean Optical Densities ([7]; Log10 conc -5.0 Moles/L): −0.044
Percent Growth ([7]; Log10 conc -5.0 Moles/L): −100%
Mean Optical Densities ([7]; Log10 conc -6.0 Moles/L): 0.595
Percent Growth ([7]; Log10 conc -6.0 Moles/L): 36%
Mean Optical Densities ([7]; Log10 conc -7.0 Moles/L): 1.037
Percent Growth ([7]; Log10 conc -7.0 Moles/L): 85%
Mean Optical Densities ([7]; Log10 conc -8.0 Moles/L): 1.072
Percent Growth ([7]; Log10 conc -8.0 Moles/L): 89%
CC50 ([8]; read-out: LC50): 5900 nM
CC50 [8, 35]: 5890 nM
GI50 ([8]; read-out: GI50): 1600 nM
GI50 [8, 34]: 1580 nM
Log10 TGI ([8]; MALME-3M): −5.51
TGI ([8]; MALME-3M): 3070 nM
Mean Optical Densities [8, 36]: 0.084
Percent Growth [8, 36]: −91%
Mean Optical Densities [8, 37]: 0.089
Percent Growth [8, 37]: −91%
Mean Optical Densities [8, 38]: 1.108
Percent Growth [8, 38]: 86%
Mean Optical Densities [8, 39]: 1.047
Percent Growth [8, 39]: 55%
Mean Optical Densities [8, 40]: 1.103
Percent Growth [8, 40]: 84%
